Binding % data for 24 compounds are collected here from patent publication US10829458B2 (Araxes Pharma LLC, priority 2015, dated 2020).

The assay has as its target T1, KRAS G12C 1-169, his-tagged protein, GDP-loaded (Homo sapiens, UniProt P01116, G12C).
T1 construct: KRAS G12C 1-169, his-tagged protein, GDP-loaded
Kind of assay: Biochemical assay: covalent modification of KRAS G12C measured by mass spectrometry (RapidFire/TOF or Q-Exactive). The conditions noted are these: covalent binding to KRAS G12C; compounds of structure (I). In a few lines: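 GDP-loaded his-tagged KRAS G12C 1-169 at 2 μM in 20 mM Hepes, 150 mM NaCl, 1 mM MgCl2 incubated at room temperature with compound (10, 30 or 100 μM final, 2% DMSO) for 30 min, 2 h or 24 h, then quenched with formic acid. Intact-protein LC-MS (RapidFire/TOF or Q-Exactive) with deconvolution quantified modified versus unmodified protein.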
Take `C=CC(=O)N1CCN(c2nc(C(N)=O)nc3c(F)c(-c4c(O)cccc4F)c(Cl)cc23)CC1` [Example I-85, 4-(4-acryloyl-piperazin-1-yl)-6-chloro-8-fluoro-7-(2-fluoro-6-hydroxyphenyl) quinazoline-2-carboxamide]: the Binding % entry is on record as “+++ (+++ indicates binding activity greater than 90%)”. `C=CC(=O)N1CCN(c2nc(OCCNC)nc3c(F)c(-c4c(O)cccc4F)c(Cl)cc23)CC1` [Example I-86, 1-(4-(6-chloro-8-fluoro-7-(2-fluoro-6-hydroxyphenyl)-2-(2-(methyl-amino)ethoxy)quinazolin-4-yl)piperazin-1-yl)prop-2-en-1-one]: the Binding % result was “+++ (+++ indicates binding activity greater than 90%)”.

As for `C=CC(=O)N1CCN(c2nc(OCCc3cccc(C)n3)nc3c(F)c(-c4c(O)cccc4F)c(Cl)cc23)CC1` [Example I-89, 1-(4-(6-chloro-8-fluoro-7-(2-fluoro-6-hydroxyphenyl)-2-(2-(6-methyl-pyridin-2-yl)ethoxy)quinazolin-4-yl)piperazin-1-yl)prop-2-en-1-one], the Binding % entry is on record as “+++ (+++ indicates binding activity greater than 90%)”. The entry for `C=CC(=O)N1CCN(c2nc(C(=O)N3CCN(C)CC3)nc3c(F)c(-c4c(O)cccc4F)c(Cl)cc23)CC1` [Example I-90, 1-(4-(6-chloro-8-fluoro-7-(2-fluoro-6-hydroxyphenyl)-2-(4-methyl-piperazine-1-carbonyl)quinazolin-4-yl)piperazin-1-yl)prop-2-en-1-one] is “+++ (+++ indicates binding activity greater than 90%)”; for `C=CC(=O)N1CCN(c2nc(OCCN3CCOCC3)nc3c(F)c(-c4c(O)ccc(F)c4F)c(Cl)cc23)CC1` [Example I-91, 1-(4-(6-chloro-7-(2,3-difluoro-6-hydroxyphenyl)-8-fluoro-2-(2-morpholino-ethoxy)quinazolin-4-yl)piperazin-1-yl)prop-2-en-1-one] it is “+++ (+++ indicates binding activity greater than 90%)”. With `C=CC(=O)N1CCN(c2nc(OC3CCN(C)CC3)nc3c(F)c(-c4c(O)cccc4F)c(Cl)cc23)CC1` [Example I-92, 1-(4-(6-chloro-8-fluoro-7-(2-fluoro-6-hydroxyphenyl)-2-(1-methyl-piperidin-4-yloxy)quinazolin-4-yl)piperazin-1-yl)prop-2-en-1-one] the entry was “+++ (+++ indicates binding activity greater than 90%)”; with `C=CC(=O)N1CCN(c2nc(OC3CCN(C)CC3)nc3c(F)c(-c4cc(O)cc5ccccc45)c(Cl)cc23)CC1` [Example I-93, 1-(4-(6-chloro-8-fluoro-7-(3-hydroxy-naphthalen-1-yl)-2-(1-methyl-piperidin-4-yloxy)quinazolin-4-yl)piperazin-1-yl)prop-2-en-1-one], “+++ (+++ indicates binding activity greater than 90%)”. The entry for `C=CC(=O)N1CCN(c2nc(OC3CCN(C4CC4)CC3)nc3c(F)c(-c4c(O)cccc4F)c(Cl)cc23)CC1` [Example I-94, 1-(4-(6-chloro-2-(1-cyclopropyl-piperidin-4-yloxy)-8-fluoro-7-(2-fluoro-6-hydroxyphenyl)quinazolin-4-yl)piperazin-1-yl)prop-2-en-1-one] is “+++ (+++ indicates binding activity greater than 90%)”; for `C=CC(=O)N1CCN(c2nc(OCc3cccc(C)n3)nc3c(F)c(-c4c(O)cccc4F)c(Cl)cc23)CC1` [Example I-99, 1-(4-(6-chloro-8-fluoro-7-(2-fluoro-6-hydroxyphenyl)-2-((6-methyl-pyridin-2-yl)methoxy)quinazolin-4-yl)piperazin-1-yl)prop-2-en-1-one] it is “+++ (+++ indicates binding activity greater than 90%)”; for `C=CC(=O)N1CCN(c2nc(OCCc3ccc(F)cn3)nc3c(F)c(-c4c(O)cccc4F)c(Cl)cc23)CC1` [Example I-100, 1-(4-(6-chloro-8-fluoro-7-(2-fluoro-6-hydroxyphenyl)-2-(2-(5-fluoro-pyridin-2-yl)ethoxy)quinazolin-4-yl)piperazin-1-yl) prop-2-en-1-one] it is “+++ (+++ indicates binding activity greater than 90%)”. Take `C=CC(=O)N1CCN(c2nc(OCc3cnc(C)nc3)nc3c(F)c(-c4c(O)cccc4F)c(Cl)cc23)CC1` [Example I-101, 1-(4-(6-chloro-8-fluoro-7-(2-fluoro-6-hydroxyphenyl)-2-((2-methyl-pyrimidin-5-yl)methoxy)quinazolin-4-yl)piperazin-1-yl) prop-2-en-1-one]: the Binding % entry is “+++ (+++ indicates binding activity greater than 90%)”. With `C=CC(=O)N1CCN(c2nc(OCc3ccc(C)nc3)nc3c(F)c(-c4c(O)cccc4F)c(Cl)cc23)CC1` [Example I-104, 1-(4-(6-chloro-8-fluoro-7-(2-fluoro-6-hydroxyphenyl)-2-((6-methyl-pyridin-3-yl)methoxy)quinazolin-4-yl)piperazin-1-yl) prop-2-en-1-one] the entry was “+ (+ indicates binding activity up to 50%)”. With `C=CC(=O)N1CCN(c2nc(OCc3ncccn3)nc3c(F)c(-c4c(O)cccc4F)c(Cl)cc23)CC1` [Example I-105, 1-(4-(6-chloro-8-fluoro-7-(2-fluoro-6-hydroxyphenyl)-2-(pyrimidin-2-ylmethoxy)quinazolin-4-yl)piperazin-1-yl) prop-2-en-1-one] the entry was “+++ (+++ indicates binding activity greater than 90%)”; with `C=CC(=O)N1CCN(c2nc(N3CC(N(C)C)C3)nc3c(F)c(-c4cc(O)cc5ccccc45)c(Cl)cc23)CC1` [Example I-106, 1-(4-(6-chloro-2-(3-(dimethyl-amino)azetidin-1-yl)-8-fluoro-7-(3-hydroxy-naphthalen-1-yl)quinazolin-4-yl)piperazin-1-yl) prop-2-en-1-one], “+++ (+++ indicates binding activity greater than 90%)”; with `C=CC(=O)N1CCN(c2nc(OCCN3CC(F)(F)C3)nc3c(F)c(-c4cc(O)cc5ccccc45)c(Cl)cc23)CC1` [Example I-107, 1-(4-(6-chloro-2-(2-(3,3-difluoro-azetidin-1-yl)ethoxy)-8-fluoro-7-(3-hydroxy-naphthalen-1-yl)quinazolin-4-yl)piperazin-1-yl) prop-2-en-1-one], “+++ (+++ indicates binding activity greater than 90%)”.

On to `C=CC(=O)N1CCN(c2nc(OCCN3CCOCC3)nc3c(F)c(-c4cc(O)cc5cccnc45)c(Cl)cc23)CC1` [Example I-108, 1-(4-(6-chloro-8-fluoro-7-(6-hydroxy-quinolin-8-yl)-2-(2-morpholino-ethoxy)quinazolin-4-yl)piperazin-1-yl) prop-2-en-1-one], for which the Binding % result is reported as “+++ (+++ indicates binding activity greater than 90%)”. With `C=CC(=O)N1CCN(c2nc(OCc3ncco3)nc3c(F)c(-c4c(O)cccc4F)c(Cl)cc23)CC1` [Example I-109, 1-(4-(6-chloro-8-fluoro-7-(2-fluoro-6-hydroxyphenyl)-2-(oxazol-2-ylmethoxy)quinazolin-4-yl)piperazin-1-yl) prop-2-en-1-one] the entry was “+++ (+++ indicates binding activity greater than 90%)”; with `C=CC(=O)N1CCN(c2nc(NC3CCN(CC4CC4)CC3)nc3c(F)c(-c4c(O)cccc4F)c(Cl)cc23)CC1` [Example I-110, 1-(4-(6-chloro-2-(1-(cyclopropyl-methyl)piperidin-4-ylamino)-8-fluoro-7-(2-fluoro-6-hydroxyphenyl)quinazolin-4-yl)piperazin-1-yl) prop-2-en-1-one], “+++ (+++ indicates binding activity greater than 90%)”. Regarding `C=CC(=O)N1CCN(c2nc(OCCc3ccc(C)nc3)nc3c(F)c(-c4c(O)cccc4F)c(Cl)cc23)CC1` [Example I-111, 1-(4-(6-chloro-8-fluoro-7-(2-fluoro-6-hydroxyphenyl)-2-(2-(6-methyl-pyridin-3-yl)ethoxy)quinazolin-4-yl)piperazin-1-yl) prop-2-en-1-one], the Binding % entry was “+ (+ indicates binding activity up to 50%)”. Turning to `C=CC(=O)N1CCN(c2nc(OCc3ccccn3)nc3c(F)c(-c4c(O)cccc4F)c(Cl)cc23)CC1` [Example I-112, 1-(4-(6-chloro-8-fluoro-7-(2-fluoro-6-hydroxyphenyl)-2-(pyridin-2-ylmethoxy)quinazolin-4-yl)piperazin-1-yl) prop-2-en-1-one], the Binding % result is “+++ (+++ indicates binding activity greater than 90%)”. With `C=CC(=O)N1CCN(c2nc(OCCS(C)(=O)=O)nc3c(F)c(-c4c(O)cccc4F)c(Cl)cc23)CC1` [Example I-113, 1-(4-(6-chloro-8-fluoro-7-(2-fluoro-6-hydroxyphenyl)-2-(2-(methyl-sulfonyl)ethoxy)quinazolin-4-yl)piperazin-1-yl) prop-2-en-1-one] the entry was “+++ (+++ indicates binding activity greater than 90%)”; with `C=CC(=O)N1CCN(c2nc(OCCc3ncccc3F)nc3c(F)c(-c4c(O)cccc4F)c(Cl)cc23)CC1` [Example I-114, 1-(4-(6-chloro-8-fluoro-7-(2-fluoro-6-hydroxyphenyl)-2-(2-(3-fluoro-pyridin-2-yl)ethoxy)quinazolin-4-yl)piperazin-1-yl) prop-2-en-1-one], “+++ (+++ indicates binding activity greater than 90%)”; with `C=CC(=O)N1CCN(c2nc(OC3CCN(C(C)=O)CC3)nc3c(F)c(-c4c(O)cccc4F)c(Cl)cc23)CC1` [Example I-115, 1-(4-(2-(1-acetylpiperidin-4-yloxy)-6-chloro-8-fluoro-7-(2-fluoro-6-hydroxyphenyl)quinazolin-4-yl)piperazin-1-yl) prop-2-en-1-one], “+++ (+++ indicates binding activity greater than 90%)”. Turning to `C=CC(=O)N1CCN(c2nc(OCc3cnc(OC)nc3)nc3c(F)c(-c4c(O)cccc4F)c(Cl)cc23)CC1` [Example I-118, 1-(4-(6-chloro-8-fluoro-7-(2-fluoro-6-hydroxyphenyl)-2-((2-methoxy-pyrimidin-5-yl)methoxy)quinazolin-4-yl)piperazin-1-yl) prop-2-en-1-one], the Binding % entry is on record as “+++ (+++ indicates binding activity greater than 90%)”.
